Data taken from the supplement of paper PMC10627819.

What was measured:
S. pneumoniae D39V [1] = test: fitness (endpoint OD595 vs no drug) (fraction); higher = more growth
How it was run: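 With the first reading as background, OD595 was measured every 30 min for 14 h in 384-well plates kept at 37 °C and inoculated at OD595 0.01. TSB, LB Lennox or CY was the medium. Fitness is the optical density at the transition into stationary phase divided by the robust mean of no-drug control wells, with a cap of 1.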

S. aureus Newman = test: Bliss interaction score (quartile over a dose matrix) (fitness difference); higher = more antagonism (negative = synergy)
How it was run: (§1)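 The Bliss score was calculated by subtracting the expected fitness, the product of single-drug values, from the observed fitness. OD595 at entry into stationary phase, over the plate's robust no-drug mean and capped at 1, served as the fitness readout. Single-drug values were inferred from combination data, and scores are summarised by quartiles across technical, biological and donor/recipient replicates.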

S. pneumoniae D39V [2] = test: as above
How it was run: as §1

B. subtilis 168 = test: as above
How it was run: as §1

S. aureus DSM 20231 = test: as above
How it was run: as §1
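Throughout, for Bliss interaction score (quartile over a dose matrix): first quartile when negative (synergy) and third quartile when positive (antagonism).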

CC[C@H]1OC(=O)[C@H](C)[C@@H](O[C@H]2C[C@@](C)(OC)[C@@H](O)[C@H](C)O2)[C@H](C)[C@@H](O[C@@H]2O[C@H](C)C[C@H](N(C)C)[C@H]2O)[C@](C)(OC)C[C@@H](C)C(=O)[C@H](C)[C@@H](O)[C@]1(C)O [Clarithromycin] + C/C(=C\C(=O)OCCCCCCCCC(=O)O)C[C@@H]1OC[C@H](C[C@@H]2O[C@H]2[C@@H](C)[C@H](C)O)[C@@H](O)[C@H]1O [Pseudomonic acid]
fitness, S. pneumoniae D39V [1], one replicate
Conditions	first compound 0.007812 µg/mL	first compound 0.01562 µg/mL	first compound 0.03125 µg/mL
partner 0.03 µg/mL	0.925	0.852	0.667
partner 0.06 µg/mL	0.841	0.838	0.673
partner 0.12 µg/mL	0.68	0.615	0.412

fitness, S. pneumoniae D39V [1]
Conditions	first compound 0.0625 µg/mL	first compound 0.07 µg/mL	first compound 0.125 µg/mL	first compound 0.14 µg/mL	first compound 0.25 µg/mL	first compound 0.28 µg/mL
partner 0.03 µg/mL	0.683	0.159	0.427	0.0976	0.258	0.0736
partner 0.06 µg/mL	–	0.12	0.399	0.102	0.174	0.0966
partner 0.12 µg/mL	0.431	0.101	0.24	0.0908	0.117	0.0699

Conditions	Bliss interaction score
B. subtilis 168	0.0528
S. aureus DSM 20231	0.0125
S. aureus Newman	0.0379
S. pneumoniae D39V [2]	0.0643

C[C@@H](O)[C@H]1C(=O)N2C(C(=O)O)=C(SCCNC=N)C[C@H]12 [Imipenem] + Cc1ncc([N+](=O)[O-])n1CCO [Metronidazole]
fitness, S. pneumoniae D39V [1]
Conditions	first compound 0.005 µg/mL	first compound 0.0065 µg/mL	first compound 0.01 µg/mL	first compound 0.013 µg/mL	first compound 0.02 µg/mL	first compound 0.026 µg/mL
partner 1.073 µg/mL	0.961	–	0.945	–	0.919	–
partner 1.25 µg/mL	–	0.991	–	0.995	–	0.985
partner 2.145 µg/mL	0.872	–	0.737	–	0.886	–
partner 2.5 µg/mL	–	0.988	–	≥ 1	–	0.984
partner 4.29 µg/mL	0.908	–	0.903	–	0.903	–
partner 5 µg/mL	–	0.99	–	0.969	–	0.961

Conditions	Bliss interaction score
B. subtilis 168	0.0502
S. aureus DSM 20231	0.0365
S. aureus Newman	-0.0547
S. pneumoniae D39V [2]	0.0768

CC[C@H]1OC(=O)[C@H](C)[C@@H](O[C@H]2C[C@@](C)(OC)[C@@H](O)[C@H](C)O2)[C@H](C)[C@@H](O[C@@H]2O[C@H](C)C[C@H](N(C)C)[C@H]2O)[C@](C)(OC)C[C@@H](C)C(=O)[C@H](C)[C@@H](O)[C@]1(C)O [Clarithromycin] + CC(=O)NC[C@H]1CN(c2ccc(N3CCOCC3)c(F)c2)C(=O)O1 [Linezolid]
fitness, S. pneumoniae D39V [1], one replicate
Conditions	first compound 0.007812 µg/mL	first compound 0.01562 µg/mL	first compound 0.03125 µg/mL
partner 0.2 µg/mL	0.728	0.709	0.581
partner 0.4 µg/mL	0.565	0.609	0.452
partner 0.8 µg/mL	0.277	0.314	0.193

fitness, S. pneumoniae D39V [1]
Conditions	first compound 0.0625 µg/mL	first compound 0.07 µg/mL	first compound 0.125 µg/mL	first compound 0.14 µg/mL	first compound 0.25 µg/mL	first compound 0.28 µg/mL
partner 0.105 µg/mL	0.637	–	0.35	–	0.111	–
partner 0.2 µg/mL	–	0.0674	–	0.0794	–	0.0498
partner 0.21 µg/mL	0.533	–	0.269	–	0.0783	–
partner 0.4 µg/mL	–	0.0735	–	0.0846	–	0.0492
partner 0.42 µg/mL	0.326	–	0.163	–	0.101	–
partner 0.8 µg/mL	–	0.0543	–	0.0384	–	0.0345

Conditions	Bliss interaction score
B. subtilis 168	-0.0553
S. aureus DSM 20231	-0.135
S. aureus Newman	-0.119
S. pneumoniae D39V [2]	-0.0363

CC[C@H]1OC(=O)[C@H](C)[C@@H](O[C@H]2C[C@@](C)(OC)[C@@H](O)[C@H](C)O2)[C@H](C)[C@@H](O[C@@H]2O[C@H](C)C[C@H](N(C)C)[C@H]2O)[C@](C)(OC)C[C@@H](C)C(=O)[C@H](C)[C@@H](O)[C@]1(C)O [Clarithromycin] + C[C@@H]1O[C@@H]1P(=O)(O)O [Fosfomycin]
fitness, S. pneumoniae D39V [1], one replicate
Conditions	first compound 0.007812 µg/mL	first compound 0.01562 µg/mL	first compound 0.03125 µg/mL
partner 1.25 µg/mL	0.863	0.828	0.641
partner 2.5 µg/mL	0.775	0.804	0.634
partner 5 µg/mL	0.669	0.63	0.559

fitness, S. pneumoniae D39V [1]
Conditions	first compound 0.0625 µg/mL	first compound 0.07 µg/mL	first compound 0.125 µg/mL	first compound 0.14 µg/mL	first compound 0.25 µg/mL	first compound 0.28 µg/mL
partner 1.25 µg/mL	0.543	0.171	0.332	0.088	0.139	0.102
partner 2.5 µg/mL	0.538	0.102	0.323	0.0599	0.13	0.0306
partner 5 µg/mL	0.485	0.0461	0.288	0.057	0.132	0.0557

Conditions	Bliss interaction score
B. subtilis 168	0.0504
S. aureus DSM 20231	-0.0843
S. aureus Newman	-0.114
S. pneumoniae D39V [2]	0.0544

O=C1CN(/N=C/c2ccc([N+](=O)[O-])o2)C(=O)N1 [Nitrofurantoin] + CC1=C\[C@@H](O)CC(=O)Cc2nc(co2)C(=O)N2CCC=C2C(=O)O[C@H](C(C)C)[C@H](C)/C=C/C(=O)NC\C=C\1 [Virginiamycin M1]
fitness, S. pneumoniae D39V [1]
Conditions	first compound 1.285 µg/mL	first compound 2 µg/mL	first compound 2.57 µg/mL	first compound 4 µg/mL	first compound 8 µg/mL
partner 0.5 µg/mL	0.99	–	0.955	–	–
partner 1 µg/mL	0.98	–	0.962	–	–
partner 2 µg/mL	0.972	0.867	0.949	0.879	0.872

fitness, S. pneumoniae D39V [1], one replicate
Conditions	partner 0.15 µg/mL	partner 0.3 µg/mL	partner 0.5 µg/mL	partner 1 µg/mL	partner 2 µg/mL
first compound 2 µg/mL	0.911	0.875	0.99	0.988	–
first compound 4 µg/mL	0.914	0.886	0.967	0.957	–
first compound 5.14 µg/mL	–	–	0.917	0.972	≥ 1
first compound 8 µg/mL	0.888	0.897	0.918	0.855	–

Conditions	Bliss interaction score
B. subtilis 168	0.129
S. aureus DSM 20231	0.0559
S. aureus Newman	0.0574
S. pneumoniae D39V [2]	0.084

O=C1CN(/N=C/c2ccc([N+](=O)[O-])o2)C(=O)N1 [Nitrofurantoin] + Cc1onc(-c2ccccc2)c1C(=O)N[C@@H]1C(=O)N2[C@@H]1SC(C)(C)[C@@H]2C(=O)O [Oxacillin]
fitness, S. pneumoniae D39V [1]
Conditions	first compound 1.285 µg/mL	first compound 2 µg/mL	first compound 2.57 µg/mL	first compound 4 µg/mL	first compound 8 µg/mL
partner 0.01 µg/mL	0.955	0.928	0.958	0.932	0.802
partner 0.02 µg/mL	0.959	0.873	0.944	0.864	0.798
partner 0.04 µg/mL	0.761	0.475	0.754	0.531	0.53

S. pneumoniae D39V [1], first compound 5.14 µg/mL, one replicate
Conditions	fitness
partner 0.01 µg/mL	0.955
partner 0.02 µg/mL	0.967
partner 0.04 µg/mL	0.795

Conditions	Bliss interaction score
B. subtilis 168	0.0329
S. aureus DSM 20231	-0.0421
S. aureus Newman	0.0474
S. pneumoniae D39V [2]	0.162

CC[C@H]1OC(=O)[C@H](C)[C@@H](O[C@H]2C[C@@](C)(OC)[C@@H](O)[C@H](C)O2)[C@H](C)[C@@H](O[C@@H]2O[C@H](C)C[C@H](N(C)C)[C@H]2O)[C@](C)(OC)C[C@@H](C)C(=O)[C@H](C)[C@@H](O)[C@]1(C)O [Clarithromycin] + C[C@H]1COc2c(N3CCN(C)CC3)c(F)cc3c(=O)c(C(=O)O)cn1c23 [Levofloxacin]
fitness, S. pneumoniae D39V [1], one replicate
Conditions	first compound 0.007812 µg/mL	first compound 0.01562 µg/mL	first compound 0.03125 µg/mL
partner 0.2 µg/mL	0.782	0.811	0.599
partner 0.4 µg/mL	0.646	0.726	0.533
partner 0.8 µg/mL	0.257	0.316	0.244

S. pneumoniae D39V [1]
Conditions	fitness
first compound 0.0625 µg/mL, partner 0.1725 µg/mL	0.701
first compound 0.0625 µg/mL, partner 0.345 µg/mL	0.691
first compound 0.0625 µg/mL, partner 0.69 µg/mL	0.371
first compound 0.07 µg/mL, partner 0.2 µg/mL	0.139
first compound 0.07 µg/mL, partner 0.4 µg/mL	0.134
first compound 0.07 µg/mL, partner 0.8 µg/mL	0.0857
first compound 0.125 µg/mL, partner 0.1725 µg/mL	0.486
first compound 0.125 µg/mL, partner 0.345 µg/mL	0.463
first compound 0.125 µg/mL, partner 0.69 µg/mL	0.349
first compound 0.14 µg/mL, partner 0.2 µg/mL	0.0726
first compound 0.14 µg/mL, partner 0.4 µg/mL	0.0532
first compound 0.14 µg/mL, partner 0.8 µg/mL	0.063
first compound 0.25 µg/mL, partner 0.69 µg/mL	0.242
first compound 0.28 µg/mL, partner 0.2 µg/mL	0.0574
first compound 0.28 µg/mL, partner 0.4 µg/mL	0.0463
first compound 0.28 µg/mL, partner 0.8 µg/mL	0.0433

Conditions	Bliss interaction score
B. subtilis 168	0.0707
S. aureus DSM 20231	0.0901
S. aureus Newman	0.0872
S. pneumoniae D39V [2]	-0.0537
